In patent US12729368B2, “Methods and compositions for generating oligodendrocyte progenitor cells” (Trailhead Biosystems Inc., priority 2022, dated 2026):
Values joined by “and” are separate entries in the source; they are usually repeats but may differ in a detail not shown here. Equal entries are not always repeated.

What was measured:
[1] = test system: human pluripotent stem cells; experiment: HD-DoE #2: 13-factor model, differentiation toward anterior neuroectoderm, gene expression; assay type: cell-based; conditions: model optimized for highest expression of FEZF2 at 4466; positive
Description: To further enhance the conditions for oligodendrocyte differentiation from pluripotency, we performed an additional HD-DoE experiment. We obtained additional gene regulatory models that were used for preparation of a differentiation protocol. The basis of this was a 13-factor HD-DoE experiment with focus on initiation of differentiation of cells toward anterior neuroectoderm. In this model, we focused on expression of FEZF2 and OTX2.
As shown in the results summarized in FIG. 4, the model was optimized for highest expression of OTX2 at 12755.9. According to the model of high expression of OTX2, seven effectors had positive contribution including MK2206, PD0325901, CHIR99021, LDN193189, Go6983, PD173074 and BLU9931 with highest factor contribution of 22.2 for MK2206 and lowest factor contribution of 1.7 for PD173074 and BLU9931.
As shown in the results summarized in FIG. 5, the model was optimized for highest expression of FEZF2 at 4466. When the model was optimized for maximum expression level of FEZF2, three effectors including LDN193189 with factor contribution of 19.5, PD0325901 with factor contribution of 14.6 and MK2206 with factor contribution of 12.3 were common with previous condition and three new effectors including purmorphamine-500 nM, XAV939 and SC79 were introduced.
As shown in the results summarized in FIG. 6, to fine-tune the recipe and find the optimum combination of factors for high expression of both OTX2 and FEZF2, dynamic profiling analysis was done. […] Therefore, these two factors were added to the optimized culture recipe.

[2] = test system: human pluripotent stem cells; experiment: HD-DoE #1: 8-factor model, 3-day treatment of pluripotent stem cells, gene expression; assay type: cell-based; conditions: for impact on NKX2-2 and OLIG2 expression levels: dynamic profile, 8-factor model; for factor contribution: positive effect
Description: This example utilizes a method of High-Dimensional Design of Experiments (HD-DoE), as previously described in Bukys et al. (2020) Iscience 23:101346. The method employs computerized design geometries to simultaneously test multiple process inputs and offers mathematical modeling of a deep effector/response space. The method allows for finding combinatorial signaling inputs that control a complex process, such as during cell differentiation. It allows testing of multiple plausible critical process parameters, as such parameters impact output responses, such as gene expression. Because gene expression provides hallmark features of the phenotype of, for example, a human cell, the method can be applied to identify, and understand, which signaling pathways control cell fate. In the current example, the HD-DOE method was applied with the intent to find conditions for induction of oligodendrocyte progenitor-expressed genes, directly from the pluripotent stem cell state.
Specifically, to develop a novel method to generate oligodendrocytes, the impact of agonists and antagonists of multiple signaling pathways (herein called effectors) were tested on expression of two sets of 53 pre-selected genes after a 3-day treatment. These effectors are small molecules that are commonly used during stepwise differentiation of stem cells to specific fates. Choice of the effectors were based on current literature on neural induction in anterior ectoderm and differentiation of stem cells to oligodendrocytes.
To test the effectors, experiments with at least 8 factors were designed that can assess the response of cells to 48 or more different combinations of effectors in a range of concentrations. To analyze the models, we focused on expression of genes expressed during early development of anterior neuroectoderm and oligodendrocytes including NKX2-2, OLIG2, OLIG1, and PDGFRA. The impact of each effector on gene expression level is defined by a parameter called factor contribution that is calculated for each effector during the modeling.
This model tested 8 factors: PD0325901, MK2206, TTNPB, SC79, MHY1485, ZM336372, AGN193109 and AZD3147.

stage 2 early-OPCs [3] = experiment: HD-DoE 8-factor model for stage 3 (version 1) on stage 2 early-OPCs; assay type: cell-based, human
Method: (§1) To further differentiate the cells to an oligodendrocyte progenitor identity, additional HD-DoE experiments were performed on the cells that were cultured in stage 1 and stage 2 differentiation media. After 3 days, gene expression of cells in different combinatorial conditions were investigated. At this time, we focused on maximal expression of signature oligodendrocyte progenitor genes such as SOX10, OLIG1 and PDGFRa (Goldman and Kuypers (2015) Development 142:3983-95; Marques et al. (2016) Science 352:1326-1329). In one 8-factor model, individual and combinatorial effects of LDN193189, SUN 11602, Activin A, Biotin, TTNPB, Isoproterenol, linoleic acid and T3+T4 were tested.
The same model was also optimized for maximum expression of PDGFRa at 3510.9. Two factor specifically, TTNPB and Linoleic acid determined the expression level of PDGFRa with factor contribution of 71.6 and 22.1, respectively (FIG. 17). […] The model was also optimized for highest expression of SOX10 at 18.8. In this optimization, TTNPB was the only input that could elevate the expression level of the selected gene (FIG. 18).
Dynamic profile analysis was utilized to explore combination sets that can optimize expression of all three selected genes. […] Since Activin A is the main compound regulating expression level of OLIG1, we investigated the changes in the plots after addition of Activin A and observed that expression level of SOX10 is still in the target range and PDGFRa is expressed at a high level too (2520).

stage 2 early-OPCs [4] = experiment: HD-DoE 12-factor model for stage 3 (version 1) on stage 2 early-OPCs; assay type: cell-based, human
Method: In another model, the effects of Activin A and TTNPB along with LDN193189, MHY1485, PDGF-AA, AICAR, FGF2, CHIR99021, DBZ, MK2206, Purmorphamine and T3+T4 were tested on gene profile of differentiating cells. When this model was optimized for maximum expression of SOX10 at 54.7, we observed Activin A again had positive regulatory impact on its expression, with factor contribution of 4.7. Other positive factors included MK2206, with the highest factor contribution at 16.2, MHY1485 at 11.49, CHIR99021 at 9.6, DBZ at 9.3, FGF2 at 3.6 and PDGF-AA, with factor contribution less than 3 (FIG. 20).
In this model, we also investigated the conditions of expression of another important OPC gene, CSPG4 (Goldman and Kuypers (2015) Development 142:3983-95: van Tilborg et al. (2018) Glia 66:221-238).
Dynamic profile analysis was used to better assess the impact of the factors on our selected genes and find the combination set that can optimize their expression (FIG. 22). According to this analysis, even though Activin A has a positive effect on SOX10, it decreases level of PDGFRa and OLIG1. […] Moreover, SOX10 is one of the main transcription factors of oligodendrocytes, along with OLIG2 and NKX2-2, that has shown the potential to commit the stem cells to oligodendrocytes in reprogramming efforts (Wang et al. (2014) Proc Natl Acad Sci USA 111:E2885-94; Garciá-León et al. (2018) Stem Cell Reports 10:655-672). […] One of the main challenges of differentiating cells to oligodendrocyte fate is controlling the mixed population and increasing the purity of the culture by committing more cells to oligodendrocyte over neuronal identity. Therefore, DBZ was excluded from the final recipe.
At this point, we investigated the expression profile of a larger group of genes defining oligodendrocyte progenitor population at a later stage, including ID2, CNP and BCAN (Perlman et al. (2020). Glia 68:1291-1303; Goldman and Kuypers (2015) Development 142:3983-95). In this model, these genes were expressed at 1900, 660 and 44, respectively.

pre-OPCs = experiment: HD-DoE 12-factor model for stage 2 (version 1), 3 days on stage 1 pre-OPCs; assay type: cell-based, human; conditions: optimized for maximum expression of OLIG2 at 1841.6
Description: To engineer the recipe of stage 2 of differentiation, cells were first cultured in the stage 1 media described in Example 1 and then treated with combinations of 8 or 12 factors for 3 days and the gene expression of cells in each condition was modeled. At this point, due to short duration of culture (only six days in vitro), we decided to focus on maximal expression of OLIG2 and maintenance of high expression of NKX2-2, while initiating expression of SOX10, OLIG1 and PDGFRa, to guide the cells towards oligodendrocyte fate (Emery and Lu (2015). Cold Spring Harb Perspect Biol. 7:a020461; Perlman et al. (2020). Glia 68:1291-1303; Goldman and. Kuypers (2015) Development 142:3983-95).
In one 12-factor model, the individual and combinatorial impact of SUN 11602 an agonist for FGF signaling pathway, FGF2, Activin A an activator of one of the receptors of TGF-b superfamily, A 8301, an inhibitor of TGF-b pathway, CHIR99021 a WNT activator, AGN193109 a RA antagonist, MK2206 an AKT inhibitor, Purmorphamine an agonist of SHH signaling pathway, AZD3147 an antagonist of mTOR pathway, MHY1485 an agonist of mTOR pathway, SC79 an agonist of AKT pathway and G06983 an inhibitor of PKC pathway, were tested.
Dynamic profile analysis was used to assess the expression levels of other genes of interests, such as NKX2-2, OLIG1 and SOX10, while the model is maximized for OLIG2. Activin A and SUN 11602 were brought down to zero due to their very low factor contribution. We observed when the model is optimized, the expression level of NKX2-2 is at 3000, PDGFRa at 1000, OLIG1 at 80 and SOX10 at 15 (FIG. 12).

[5] = test system: cells cultured in stage 1 and stage 2 differentiation media; experiment: HD-DoE 8-factor model for stage 3 (version 2); assay type: cell-based, human
Method: as §1, with “142:3983-95:” for “142:3983-95;”, “TTNPB (an RA agonist), CHIR99021, FGF-2, IGF-1, AGN193109, Purmorphamine, MHY1485 (a mTOR pathway agonist)” for “LDN193189, SUN 11602, Activin A, Biotin, TTNPB, Isoproterenol, linoleic acid”, “SC79 (an AKT pathway agonist)” for “T3+T4”, “tested to guide the cells toward a SOX10/PDGFRa positive population. […] CHIR99021 was also positive, with a factor contribution of 8.1 (FIG. 33).” for “tested.”
Other positive factors were IGF-1, with a factor contribution of 11.2, CHIR99021, with a factor contribution of 8.5 and TTNPB, with a factor contribution below 1 (FIG. 34).
To confirm the impact of TTNPB, FGF-2 and IGF-1 on a bigger scale, we investigated the expression profile of a larger group of genes defining late oligodendrocyte progenitor population, such as ID2, CSPG4, FYN, SOX8, PLP1 and BCAN (Perlman et al. (2020). Glia 68:1291-1303; Goldman and Kuypers (2015) Development 142:3983-95; van Tilborg et al. (2018) Glia 66:221-238) and neuronal genes such as NEUROD1, NEUROG1 and NEUROG2 in presence of IGF-1, FGF-2 or TTNPB.

[6] = model optimized for maximum expression of PDGFRA
[7] = optimized for maximum expression of OLIG1 at 256, positive impact
[8] = optimized for maximum expression of PDGFRa at 3510.9, positive
[9] = model optimized for maximum expression of NKX2-2

Question: For `O=C(NOC[C@H](O)CO)c1ccc(F)c(F)c1Nc1ccc(I)cc1F` [PD0325901], which factor contribution [1] is on record?
Answer: 14.6

Question: What about the “impact on NKX2-2 and OLIG2 expression levels” value [2] of the same molecule?
Answer: negatively impacting

Question: What about the factor contribution [2, 6] of the same molecule?
Answer: 30.6 and 30.05

Question: Which results are given for `c1ccc2c(-c3cnn4cc(-c5ccc(N6CCNCC6)cc5)cnc34)ccnc2c1` [LDN193189]?
Answer: factor contribution (stage 2 early-OPCs [3]; [7]): 10.8; factor contribution [1]: 19.5; factor contribution (stage 2 early-OPCs [4]; optimized for maximum expression of CSPG4 at 38.6, negative impact): 16.9

Question: `CCCCC/C=C\C/C=C\CCCCCCCC(=O)O` [Linoleic acid] was tested. Which factor contribution (stage 2 early-OPCs [3]; [8]) did it give?
Answer: 22.1

Question: How did the factor contribution (pre-OPCs; negative impact) turn out when `O=[N+]([O-])c1ccc(Nc2nc(N3CCOCC3)nc(N3CCOCC3)n2)cc1` [MHY1485] was run?
Answer: 22.5

Question: And the factor contribution (stage 2 early-OPCs [4]; optimized for maximum expression of SOX10 at 54.7, positive)?
Answer: 11.49 and 11.5

Question: What about the factor contribution [2, 9] of the same molecule?
Answer: 13.8

Question: What about the factor contribution [2, 6] of the same molecule?
Answer: 13.4

Question: How did the factor contribution ([5]; optimized for SOX10 at 41.04, negative impact) turn out when `CCOC(=O)C1=C(N)Oc2ccc(Cl)cc2C1C(C#N)C(=O)OCC` (centres unmarked) [SC79] was run?
Answer: 30.2

Question: What about the factor contribution (pre-OPCs; positive regulatory effect) of the same molecule?
Answer: 3.6

Question: And the factor contribution [2, 9]?
Answer: 1.47

Question: Which results are given for `C/C(=C\c1ccc(C(=O)O)cc1)c1ccc2c(c1)C(C)(C)CCC2(C)C` [TTNPB]?
Answer: effect on late OPC genes and neuronal genes ([5]; factor plots vs concentration): negative effect of TTNPB on OPC genes and its positive effect on neuronal genes; factor contribution ([5]; optimized for SOX10 at 41.04, positive): 17.98; factor contribution ([5]; optimized for maximum expression of PDGFRa at 853.4, positive): below 1; factor contribution (stage 2 early-OPCs [3]; optimized for highest expression of SOX10 at 18.8, positive): 8; factor contribution (stage 2 early-OPCs [3]; [7]): 19.11 and 19.1; factor contribution (stage 2 early-OPCs [3]; [8]): 71.6; factor contribution (stage 2 early-OPCs [4]; optimized for maximum expression of CSPG4 at 38.6, positive): 15.96 and 15.9; factor contribution [2, 9]: 31.3; factor contribution [2, 6]: 49.01

Question: How did the factor contribution (stage 2 early-OPCs [3]; [7]) turn out when `Cc1c(C)c(NCC(=O)N(C)C2CCN(Cc3ccc(C(N)=O)cc3)CC2)c(C)c(C)c1N` [SUN 11602] was run?
Answer: 3.7

Question: How did the “impact on NKX2-2 and OLIG2 expression levels” value [2] turn out when `Cc1ccc(NC(=O)c2cccc(N(C)C)c2)cc1NC(=O)c1ccc(O)cc1` [ZM336372] was run?
Answer: negatively impacting

Question: And the factor contribution [2, 6]?
Answer: < 1
